Measurements from patent US20100168084A1, “Therapeutic compounds and related methods of use” (priority 2008, published 2010).
Read-outs that look alike come from different tables or passages of the source.

Target: T1, sirtuin protein (Homo sapiens, UniProt Q96EB6)
T1 sequence (Q96EB6 2-747 limits assumed): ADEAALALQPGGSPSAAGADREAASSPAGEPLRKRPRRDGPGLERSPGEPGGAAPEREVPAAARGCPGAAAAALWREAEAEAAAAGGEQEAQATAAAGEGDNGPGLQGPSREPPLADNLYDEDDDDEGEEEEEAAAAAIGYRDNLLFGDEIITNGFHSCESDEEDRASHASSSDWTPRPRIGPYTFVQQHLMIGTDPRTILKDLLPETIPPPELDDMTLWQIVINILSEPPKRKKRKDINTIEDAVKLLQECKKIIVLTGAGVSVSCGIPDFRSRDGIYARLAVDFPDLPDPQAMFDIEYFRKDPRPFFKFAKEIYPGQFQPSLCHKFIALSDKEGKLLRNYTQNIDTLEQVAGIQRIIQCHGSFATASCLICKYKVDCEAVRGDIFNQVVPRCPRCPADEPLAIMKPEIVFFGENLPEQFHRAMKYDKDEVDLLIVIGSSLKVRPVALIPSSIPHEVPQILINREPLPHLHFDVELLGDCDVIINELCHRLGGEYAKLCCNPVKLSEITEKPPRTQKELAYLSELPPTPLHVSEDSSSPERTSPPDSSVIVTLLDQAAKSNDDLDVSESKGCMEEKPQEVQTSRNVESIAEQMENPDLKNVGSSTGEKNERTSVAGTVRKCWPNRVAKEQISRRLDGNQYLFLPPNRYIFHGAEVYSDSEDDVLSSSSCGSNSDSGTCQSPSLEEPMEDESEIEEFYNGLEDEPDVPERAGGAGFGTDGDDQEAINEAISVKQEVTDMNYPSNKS
Assay: MS assay (IC50 MS ASSAY / ED50 MS / FOLD ACTIVATION MS)
Format: biochemical
Design: scale not given here

[1] = MS assay, class symbols A′, A, B, D, NA, legend not given
[2] = Table 4, class symbols A′, A, B, D, NA, legend not given
[3] = class symbols (A′, A, B, D, NA), no legend given

ED50 MS ASSAY [1]	ED50 MS ASSAY (Table 4)	ED50 MS ASSAY [2]	ED50 MS ASSAY (Table 4, class symbols)	ED50 MS ASSAY [3]	ED50 MS ASSAY	Compound
A′	A′	A′				CN(C)c1cccc(C(=O)Nc2ccccc2-c2nc3cnccc3o2)c1 [Compound 406]
A′	A′	A′				CN(C)c1cccc(C(=O)Nc2ccccc2-c2nc3ccncc3o2)c1 [Compound 458]
A′	A′	A′	A′	A′		CN(C)c1ccc(C(=O)Nc2ccccc2-c2nc3ccncc3o2)cc1 [Compound 459]
	A′	A′	A′	A′	A′	COc1cc(C(=O)Nc2ccccc2-c2nc3ccccc3[nH]2)ccc1CN1CCOCC1 [Compound 503]
	A′	A′	A′	A′	A′	O=C(Nc1ccccc1-c1nc2ccccc2[nH]1)c1cnc2ccccc2n1 [Compound 508]
	A′	A′	A′	A′	A′	COc1cc(OC)cc(C(=O)Nc2ccccc2-c2nc3cccnc3[nH]2)c1 [Compound 521]
	A′	A′	A′	A′	A′	CN(C)c1cccc(C(=O)Nc2ccccc2-c2nc3cccnc3[nH]2)c1 [Compound 524]
	A′	A′	A′	A′	A′	COc1ccc(C(=O)Nc2ccccc2-c2nc3cccnc3[nH]2)cc1OC [Compound 525]
	A′	A′	A′	A′	A′	O=C(Nc1ccccc1-c1nc2cccnc2[nH]1)c1ccc(N2CCOCC2)cc1 [Compound 526]
	A′	A′	A′	A′	A′	O=C(Nc1ccccc1-c1nc2cccnc2[nH]1)c1ccc(N2CCCCC2)cc1 [Compound 527]
	A′	A′	A′	A′	A′	COc1ccc(C(=O)Nc2ccccc2-c2nc3cccnc3[nH]2)cc1C(F)(F)F [Compound 528]
	A′	A′	A′	A′	A′	O=C(Nc1ccccc1-c1nc2cccnc2[nH]1)c1cccc(OC(F)(F)F)c1 [Compound 529]
	A′	A′	A′	A′	A′	COc1cccc(C(=O)Nc2ccccc2-c2nc3cccnc3[nH]2)c1C [Compound 530]
	A′	A′	A′	A′	A′	COc1ccc(C(=O)Nc2ccccc2-c2nc3cccnc3[nH]2)cc1 [Compound 531]
	A′	A′	A′	A′	A′	COc1cccc(C(=O)Nc2ccccc2-c2nc3cccnc3[nH]2)c1 [Compound 532]
	A′	A′	A′	A′	A′	O=C(Nc1ccccc1-c1nc2cccnc2[nH]1)c1ccccc1 [Compound 533]
	A′	A′	A′	A′	A′	CN(C)c1ccc(C(=O)Nc2ccccc2-c2nc3cccnc3[nH]2)cc1 [Compound 534]

Second part, the compound before the results:

Compound	ED50 MS ASSAY [1]	ED50 MS ASSAY (Table 4)	ED50 MS ASSAY [2]	ED50 MS ASSAY (Table 4, class symbols)	ED50 MS ASSAY [3]	ED50 MS ASSAY
CN(C)c1cccc(C(=O)Nc2cccc(-c3nc4cnccc4s3)c2)c1 [Compound 402]	A′	A′	A′			
CN(C)c1ccc(C(=O)Nc2cccc(-c3nc4cnccc4s3)c2)cc1 [Compound 403]	A′	A′	A′			
COc1cc(OC)cc(C(=O)Nc2ccccc2-c2nc3cnccc3o2)c1 [Compound 404]	A′	A′	A′			
COc1cc(C(=O)Nc2ccccc2-c2nc3cnccc3o2)cc(OC)c1OC [Compound 405]	A′	A′	A′			
CN(C)c1ccc(C(=O)Nc2ccccc2-c2nc3cnccc3o2)cc1 [Compound 407]	A′	A′	A′			
COc1ccc(C(=O)Nc2ccc(-c3nc4cnccc4o3)s2)cc1OC [Compound 423]	A′	A′	A′			
COc1cc(C(=O)Nc2ccc(-c3nc4cnccc4o3)s2)cc(OC)c1OC [Compound 426]	A′	A′	A′			
CN(C)c1cccc(C(=O)Nc2ccc(-c3nc4cnccc4o3)s2)c1 [Compound 427]	A′	A′	A′			
COc1ccc(C(=O)Nc2cccc(-c3nc4ccncc4o3)c2)c(OC)c1 [Compound 429]	A′	A′	A′			
COc1ccc(C(=O)Nc2ccccc2-c2cn3cccnc3n2)cc1OC [Compound 438]	A′	A′	A′			
COc1cc(C(=O)Nc2ccccc2-c2cn3cccnc3n2)cc(OC)c1OC [Compound 439]	A′	A′	A′			
O=C(Nc1ccccc1-c1cn2c(CN3CCNCC3)csc2n1)c1cnc2ccccc2n1 [Compound 441]	A′	A′	A′			
Cc1c(C(=O)Nc2ccccc2-c2cn3c(CN4CCNCC4)csc3n2)oc2ccccc12 [Compound 442]	A′	A′	A′			
COc1ccc(C(=O)Nc2ccccc2-c2nc3ccncc3o2)c(OC)c1 [Compound 455]	A′	A′	A′			
COc1cc(OC)cc(C(=O)Nc2ccccc2-c2nc3ccncc3o2)c1 [Compound 456]	A′	A′	A′			
Cc1cc(C)cc(C(=O)Nc2ccccc2-c2nc3ncccc3o2)c1 [Compound 481]				A′		
Cc1cc(C)cc(C(=O)Nc2ccccc2-c2nc3ncccc3o2)c1 [Compound 482]		A′	A′		A′	A′
COc1ccc(C(=O)Nc2ccc(C)cc2-c2nc3ccccc3[nH]2)cc1OC [Compound 507]		A′	A′	A′	A′	A′
O=C(Nc1ccccc1-c1cn2c(CN3CCNCC3)csc2n1)c1c[nH]c2ccccc12 [Compound 510]		A′	A′	A′	A′	A′
O=C(Nc1ccccc1-c1cn2c(CN3CCNCC3)csc2n1)c1c[nH]nc1-c1ccccc1 [Compound 512]		A′	A′	A′	A′	A′
O=C(Nc1ccccc1-c1cn2cc(CN3CCNCC3)sc2n1)c1cnc2ccccc2n1 [Compound 513]		A′	A′	A′	A′	A′
COc1ccc(C(=O)Nc2ccc(-c3nc4cnccc4s3)s2)c(OC)c1 [Compound 515]		A′	A′	A′	A′	A′
CN(C)c1cccc(C(=O)Nc2ccc(-c3nc4cnccc4s3)s2)c1 [Compound 518]		A′	A′	A′	A′	A′
CN(C)c1ccc(C(=O)Nc2ccc(-c3nc4cnccc4s3)s2)cc1 [Compound 519]		A′	A′	A′	A′	A′
COc1cc(C(=O)Nc2ccc(-c3nc4cnccc4s3)s2)cc(OC)c1OC [Compound 520]		A′	A′	A′	A′	A′
